Measured values: patent US11732256B2, “Multivalent glycopeptides that tightly bind to target proteins” (Brandeis University, priority 2013, dated 2023)

Test system: HIV broadly neutralizing antibody 2G12
Experiment: Radioactive 2G12-glycopeptide binding assay with protein G magnetic beads (binding curve and KD determination)
Method: The sequences were obtained by cloning non-selected library DNA. […] FIG. 9B is an SDS-PAGE analysis of the click reaction of the non-selected peptides. Both peptides were transcribed and translated from PCR-amplified DNA in Pure System that contains 0.02 mg/mL T7 RNA polymerase and additional 1 mM each NTP. The peptides were labeled with 3H-histidine and the bands were visualized by fluorography.
For round 10 winners, 0.12-0.2 nM radioactive glycopeptides were incubated with 0, 0.25, 0.5, 1, 2, 4, 8, 16, 32 or 64 nM 2G12 in 40 μL of selection buffer at room temperature for 1 h. Then, the solution was added to 0.12 mg of pre-equilibrated Dynabeads Protein G and tumbled at room temperature for 30 min. The supernatant was removed and the beads were washed with 3×40 μL of selection buffer. The radioactivities of the supernatant and wash solutions were measured by liquid scintillation counting as unbound fractions. […] The beads were resuspended in 40 μL of selection buffer, heated at 70° C. for 30 min to elute the bound glycopeptides, chilled on ice for 5 min, and tumbled at room temperature for 10 min. The supernatant was removed, and the beads were washed with 40 μL of selection buffer and resuspended in 40 μL of selection buffer. The radioactivities of these solutions and suspensions were measured by liquid scintillation counting separately and the values were combined as apparent bound fractions. […] All experiments were done at least in triplicate. KDs were calculated as described in the footnote of Table 4 (below).

Compound | Fmax [%] (Table 6 mutants/truncations, radioactive binding assay) | 2G12 binding after truncation (truncated clones) | Tolerance of Cys substitutions for 2G12 binding (Cys mutated to Ser)
CC[C@H](C)[C@H](NC(=O)[C@H](CCCNC(=N)N)NC(=O)[C@H](Cc1c[nH]cn1)NC(=O)[C@H](Cc1ccccc1)NC(=O)[C@H](CC(C)C)NC(=O)[C@H](C)NC(=O)[C@H](CC(C)C)NC(=O)[C@H](C)NC(=O)[C@H](Cc1ccc(O)cc1)NC(=O)[C@H](CCc1cn(C2CCC(OC3O[C@H](CO[C@H]4O[C@H](CO[C@H]5O[C@H](CO)[C@@H](O)[C@H](O)[C@@H]5O[C@H]5O[C@H](CO)[C@@H](O)[C@H](O)[C@@H]5O)[C@@H](O)[C@H](O[C@H]5O[C@H](CO)[C@@H](O)[C@H](O)[C@@H]5O[C@H]5O[C@H](CO)[C@@H](O)[C@H](O)[C@@H]5O)[C@@H]4O)[C@@H](O)[C@H](O[C@H]4O[C@H](CO)[C@@H](O)[C@H](O)[C@@H]4O[C@H]4O[C@H](CO)[C@@H](O)[C@H](O)[C@@H]4O[C@H]4O[C@H](CO)[C@@H](O)[C@H](O)[C@@H]4O)[C@@H]3O)CC2)nn1)NC(=O)[C@H](CC(=O)O)NC(=O)[C@@H](NC(=O)[C@@H](NC(=O)[C@H](CCC(N)=O)NC(=O)[C@H](CCc1cn(C2CCC(OC3O[C@H](CO[C@H]4O[C@H](CO[C@H]5O[C@H](CO)[C@@H](O)[C@H](O)[C@@H]5O[C@H]5O[C@H](CO)[C@@H](O)[C@H](O)[C@@H]5O)[C@@H](O)[C@H](O[C@H]5O[C@H](CO)[C@@H](O)[C@H](O)[C@@H]5O[C@H]5O[C@H](CO)[C@@H](O)[C@H](O)[C@@H]5O)[C@@H]4O)[C@@H](O)[C@H](O[C@H]4O[C@H](CO)[C@@H](O)[C@H](O)[C@@H]4O[C@H]4O[C@H](CO)[C@@H](O)[C@H](O)[C@@H]4O[C@H]4O[C@H](CO)[C@@H](O)[C@H](O)[C@@H]4O)[C@@H]3O)CC2)nn1)NC(=O)[C@H](CCCCN)NC(=O)[C@H](CC(C)C)NC(=O)[C@H](C)NC(=O)[C@H](C)NC(=O)[C@H](CCc1cn(C2CCC(OC3O[C@H](CO[C@H]4O[C@H](CO[C@H]5O[C@H](CO)[C@@H](O)[C@H](O)[C@@H]5O[C@H]5O[C@H](CO)[C@@H](O)[C@H](O)[C@@H]5O)[C@@H](O)[C@H](O[C@H]5O[C@H](CO)[C@@H](O)[C@H](O)[C@@H]5O[C@H]5O[C@H](CO)[C@@H](O)[C@H](O)[C@@H]5O)[C@@H]4O)[C@@H](O)[C@H](O[C@H]4O[C@H](CO)[C@@H](O)[C@H](O)[C@@H]4O[C@H]4O[C@H](CO)[C@@H](O)[C@H](O)[C@@H]4O[C@H]4O[C@H](CO)[C@@H](O)[C@H](O)[C@@H]4O)[C@@H]3O)CC2)nn1)NC(=O)[C@H](CCc1cn(C2CCC(OC3O[C@H](CO[C@H]4O[C@H](CO[C@H]5O[C@H](CO)[C@@H](O)[C@H](O)[C@@H]5O[C@H]5O[C@H](CO)[C@@H](O)[C@H](O)[C@@H]5O)[C@@H](O)[C@H](O[C@H]5O[C@H](CO)[C@@H](O)[C@H](O)[C@@H]5O[C@H]5O[C@H](CO)[C@@H](O)[C@H](O)[C@@H]5O)[C@@H]4O)[C@@H](O)[C@H](O[C@H]4O[C@H](CO)[C@@H](O)[C@H](O)[C@@H]4O[C@H]4O[C@H](CO)[C@@H](O)[C@H](O)[C@@H]4O[C@H]4O[C@H](CO)[C@@H](O)[C@H](O)[C@@H]4O)[C@@H]3O)CC2)nn1)NC=O)C(C)C)[C@@H](C)O)C(=O)N[C@@H](CC(C)C)C(=O)NCC(=O)N[C@@H](CO)C(=O)NCC(=O)N[C@@H](CO)C(=O)N[C@@H](CC(C)C)C(=O)NCC(=O)N[C@@H](Cc1c[nH]cn1)C(=O)N[C@@H](Cc1c[nH]cn1)C(=O)N[C@@H](Cc1c[nH]cn1)C(=O)N[C@@H](Cc1c[nH]cn1)C(=O)N[C@@H](Cc1c[nH]cn1)C(=O)N[C@@H](Cc1c[nH]cn1)C(=O)N[C@@H](CCCNC(=N)N)C(=O)N[C@@H](CC(=O)O)C(=O)N[C@@H](Cc1ccc(O)cc1)C(=O)N[C@@H](CCCCN)C(=O)N[C@@H](CC(=O)O)C(=O)N[C@@H](CC(=O)O)C(=O)N[C@@H](CC(=O)O)C(=O)N[C@@H](CC(=O)O)C(=O)N[C@@H](CCCCN)C(=O)O (stereo partly drawn) [Clone 10F2-Δ11, XXAALKXQVTDXYALALFHRIL] | 70 | tight binding | 
CC[C@H](C)[C@H](NC(=O)[C@H](CCC(N)=O)NC(=O)[C@H](CCCCN)NC(=O)[C@H](CC(C)C)NC(=O)[C@H](Cc1c[nH]cn1)NC(=O)[C@H](CC(C)C)NC(=O)[C@@H](NC(=O)[C@H](CC(=O)O)NC(=O)[C@H](CCc1cn(C2CCC(OC3O[C@H](CO[C@H]4O[C@H](CO[C@H]5O[C@H](CO)[C@@H](O)[C@H](O)[C@@H]5O[C@H]5O[C@H](CO)[C@@H](O)[C@H](O)[C@@H]5O)[C@@H](O)[C@H](O[C@H]5O[C@H](CO)[C@@H](O)[C@H](O)[C@@H]5O[C@H]5O[C@H](CO)[C@@H](O)[C@H](O)[C@@H]5O)[C@@H]4O)[C@@H](O)[C@H](O[C@H]4O[C@H](CO)[C@@H](O)[C@H](O)[C@@H]4O[C@H]4O[C@H](CO)[C@@H](O)[C@H](O)[C@@H]4O[C@H]4O[C@H](CO)[C@@H](O)[C@H](O)[C@@H]4O)[C@@H]3O)CC2)nn1)NC=O)[C@@H](C)O)C(=O)NCC(=O)NCC(=O)N[C@@H](CCc1cn(C2CCC(OC3O[C@H](CO[C@H]4O[C@H](CO[C@H]5O[C@H](CO)[C@@H](O)[C@H](O)[C@@H]5O[C@H]5O[C@H](CO)[C@@H](O)[C@H](O)[C@@H]5O)[C@@H](O)[C@H](O[C@H]5O[C@H](CO)[C@@H](O)[C@H](O)[C@@H]5O[C@H]5O[C@H](CO)[C@@H](O)[C@H](O)[C@@H]5O)[C@@H]4O)[C@@H](O)[C@H](O[C@H]4O[C@H](CO)[C@@H](O)[C@H](O)[C@@H]4O[C@H]4O[C@H](CO)[C@@H](O)[C@H](O)[C@@H]4O[C@H]4O[C@H](CO)[C@@H](O)[C@H](O)[C@@H]4O)[C@@H]3O)CC2)nn1)C(=O)N1CCC[C@H]1C(=O)N[C@@H](CC(N)=O)C(=O)N[C@@H](CS)C(=O)N[C@H](C(=O)N[C@H](C(=O)N[C@@H](CCC(N)=O)C(=O)N[C@@H](CCC(N)=O)C(=O)N[C@@H](CC(=O)O)C(=O)N[C@H](C(=O)N[C@@H](CCCNC(=N)N)C(=O)N[C@@H](CCc1cn(C2CCC(OC3O[C@H](CO[C@H]4O[C@H](CO[C@H]5O[C@H](CO)[C@@H](O)[C@H](O)[C@@H]5O[C@H]5O[C@H](CO)[C@@H](O)[C@H](O)[C@@H]5O)[C@@H](O)[C@H](O[C@H]5O[C@H](CO)[C@@H](O)[C@H](O)[C@@H]5O[C@H]5O[C@H](CO)[C@@H](O)[C@H](O)[C@@H]5O)[C@@H]4O)[C@@H](O)[C@H](O[C@H]4O[C@H](CO)[C@@H](O)[C@H](O)[C@@H]4O[C@H]4O[C@H](CO)[C@@H](O)[C@H](O)[C@@H]4O[C@H]4O[C@H](CO)[C@@H](O)[C@H](O)[C@@H]4O)[C@@H]3O)CC2)nn1)C(=O)N[C@H](C(=O)N[C@@H](CO)C(=O)N[C@H](C(=O)N1CCC[C@H]1C(=O)N[C@@H](Cc1ccc(O)cc1)C(=O)N[C@H](C(=O)N[C@@H](Cc1ccc(O)cc1)C(=O)N[C@H](C(=O)N[C@@H](Cc1c[nH]c2ccccc12)C(=O)N1CCC[C@H]1C(=O)NCC(=O)N[C@@H](CO)C(=O)NCC(=O)N[C@@H](CO)C(=O)N[C@@H](CC(C)C)C(=O)NCC(=O)N[C@@H](Cc1c[nH]cn1)C(=O)N[C@@H](Cc1c[nH]cn1)C(=O)N[C@@H](Cc1c[nH]cn1)C(=O)N[C@@H](Cc1c[nH]cn1)C(=O)N[C@@H](Cc1c[nH]cn1)C(=O)N[C@@H](Cc1c[nH]cn1)C(=O)N[C@@H](CCCNC(=N)N)C(=O)N[C@@H](CC(=O)O)C(=O)N[C@@H](Cc1ccc(O)cc1)C(=O)N[C@@H](CCCCN)C(=O)N[C@@H](CC(=O)O)C(=O)N[C@@H](CC(=O)O)C(=O)N[C@@H](CC(=O)O)C(=O)N[C@@H](CC(=O)O)C(=O)N[C@@H](CCCCN)C(=O)O)[C@@H](C)O)[C@@H](C)O)[C@@H](C)CC)[C@@H](C)O)C(C)C)[C@@H](C)O)[C@@H](C)CC (stereo partly drawn) [Clone 10F3, XDTLHLKQIGGXPNCITQQDVRXTSIPYTYTWP] |  |  | tolerated
